Data reported in ChEMBL document CHEMBL1201862, “PubChem BioAssay data set” (2004).
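Where inhibition never reached the appropriate level, the endpoint shown equals the highest concentration tested. Otherwise, values were interpolated linearly from a five-concentration, 48-hour dose response in 96-well plates. GI50 = concentration required for 50% inhibition of growth.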 The source made the active and inactive calls. Rule as the data show it: active = GI50 up to about 1.1 µM and inactive = higher.

Legend:
Assay in all cases: NCI tumour cell line growth inhibition, 48 h
[1] = tested on: SK-OV-3
[2] = tested on: XF498
[3] = tested on: LXFL 529
[4] = tested on: UACC-257
[5] = tested on: SK-MEL-28
[6] = tested on: SNB-78
[7] = tested on: M14
[8] = tested on: SN12C
[9] = tested on: RXF 393
[10] = tested on: DLD-1
[11] = tested on: RXF 631
[12] = tested on: HCT-15
[13] = tested on: Malme-3M
[14] = tested on: A498
[15] = tested on: ACHN
[16] = tested on: SR
[17] = tested on: KM-20L2
[18] = tested on: MCF7
[19] = tested on: NCI/ADR-RES
[20] = tested on: HOP-18

Row | SMILES | GI50 [1] | GI50 [2] | GI50 [3] | GI50 [4] | GI50 [5] | GI50 [6] | GI50 [7] | GI50 [8] | GI50 [9] | GI50 [10] | GI50 [11] | GI50 [12] | GI50 [13] | GI50 [14] | GI50 [15] | GI50 [16] | GI50 [17] | GI50 [18] | GI50 [19] | GI50 [20]
1 | COC(=O)C1C(C)N1C (stereo not drawn) | > 100 µM (inactive) | 64.3 µM (inactive) | > 100 µM (inactive) | > 100 µM (inactive) | > 100 µM (inactive) | > 100 µM (inactive) | > 100 µM (inactive) | > 100 µM (inactive) | > 100 µM (inactive) | > 100 µM (inactive) | > 100 µM (inactive) | > 100 µM |  |  |  |  |  |  |  | 
2 | CCC(C(=O)O)c1ccc(OC)cc1 (stereo not drawn) | > 100 µM (inactive) | > 100 µM (inactive) | > 100 µM (inactive) | > 100 µM (inactive) | > 100 µM (inactive) | > 100 µM (inactive) | > 100 µM (inactive) | > 100 µM (inactive) | > 100 µM (inactive) | > 100 µM (inactive) | > 100 µM (inactive) |  | > 100 µM (inactive) | > 100 µM (inactive) | > 100 µM (inactive) | > 100 µM (inactive) | > 100 µM (inactive) |  |  | 
3 | O=c1ccn(COC(COCc2ccccc2)COCc2ccccc2)c(=O)[nH]1 | > 100 µM (inactive) |  |  | > 100 µM (inactive) | > 100 µM (inactive) |  | > 100 µM (inactive) | > 100 µM (inactive) | > 100 µM (inactive) |  |  | > 100 µM | > 100 µM (inactive) | > 100 µM (inactive) |  | 62.8 µM (inactive) |  | > 100 µM (inactive) | > 100 µM (inactive) | 
4 | O=C(O)C1CCCCN1c1ccccc1[N+](=O)[O-] (stereo not drawn) | > 100 µM (inactive) | > 100 µM (inactive) | > 100 µM (inactive) | > 100 µM (inactive) |  | > 100 µM (inactive) | > 100 µM (inactive) | > 100 µM (inactive) | > 100 µM (inactive) | > 100 µM (inactive) |  | > 100 µM | > 100 µM (inactive) |  | > 100 µM (inactive) | > 100 µM (inactive) | > 100 µM (inactive) |  |  | > 100 µM (inactive)
5 | O=C(/C=N/c1ccccc1S)c1ccco1 |  |  |  | 17.7 µM (inactive) | 15.8 µM (inactive) | 16.9 µM (inactive) |  | 8.09 µM (inactive) | 15.4 µM (inactive) | 6.56 µM (inactive) |  | 7.66 µM | 18.9 µM (inactive) |  |  |  | 14.5 µM (inactive) |  |  | 17.7 µM (inactive)
6 | O=c1[nH]c(-c2ccc(Cl)cc2)cc2ccsc12 | 4.9 µM (inactive) |  |  | 0.662 µM (active) | 5.15 µM (inactive) |  | 3.48 µM (inactive) | 5.5 µM (inactive) | 12.2 µM (inactive) |  |  | 2.26 µM | 1.2 µM (inactive) |  | 6.03 µM (inactive) | 0.506 µM (active) |  | 5.05 µM (inactive) | 3.56 µM (inactive) | 
7 | O=C=C=P(c1ccccc1)(c1ccccc1)c1ccccc1 | 48.3 µM (inactive) | 29 µM (inactive) | 35 µM (inactive) | 27.8 µM (inactive) | > 100 µM (inactive) | 39.7 µM (inactive) | 80.5 µM (inactive) | > 100 µM (inactive) | 92.5 µM (inactive) | > 100 µM (inactive) | 62.1 µM (inactive) | > 100 µM | 30.6 µM (inactive) |  | > 100 µM (inactive) | 86.7 µM (inactive) |  |  |  | 21.6 µM (inactive)
8 | OC[C@H]1O[C@@H](n2cnc3cncnc32)[C@H](O)[C@@H]1O [NEBULARINE] | 0.953 µM (active) | < 0.01 µM (active) |  | 1.61 µM (inactive) | 1.39 µM (inactive) | 4.02 µM (inactive) |  | 1.4 µM (inactive) | 1.31 µM (inactive) | 0.536 µM (active) |  | 0.692 µM | 2.03 µM (inactive) | 1.52 µM (inactive) |  |  | 1.04 µM (active) | 0.307 µM (active) | 0.69 µM (active) | 2.62 µM (inactive)
